Laboratory results taken from PMC10254045, “Elaboration of the Effective Multi-Target Therapeutic Platform for the Treatment of Alzheimer’s Disease Based on Novel Monoterpene-Derived Hydroxamic Acids” (International Journal of Molecular Sciences, 2023).

Legend:
[1] = test system: 5xFAD transgenic mice brain; experiment: MDA level in brain samples (TBA test); format: in vivo; conditions: 21-day administration, 15 mg/kg; p = 0.001 vs 5xFAD
Text: As part of the in vivo testing of the biological activity of the leader compound, a transgenic mouse model with Alzheimer’s disease 5xFAD at the age of 13 months was used. This line expresses two human genes: APP (amyloid peptide precursor protein gene) with three types of mutations (Swedish (K670N, M671L), Florida (I716V) and London (V717I)), as well as the presenilin 1 gene with mutations (M146L and L286V) characteristic of this disease. Clinically healthy wildtype single-litter mice C57Bl6/j (n = 8) were used as a control group. […]
To determine the level of malondialdehyde in the brain of animals, the samples were homogenized in a buffer solution and subjected to a centrifugation procedure at 12,000 rpm for 10 min at 4 °C, after which the infusion fluid was collected for subsequent analysis. Quantitative determination of the protein was carried out as described earlier.
The content of malondialdehyde was determined using a modified TBA test. […] The optical density of the selected suprasetting fluid was measured using a multifunctional Cytation™3 flatbed analyzer (BioTek Instruments, Inc., Winooski, VT, USA) at λ = 540 nm.

Cell viability, MTT test = format: cell-based; conditions: human, SH-SY5Y neuroblastoma cells, 24-h exposure, read-out: IC50 cytotoxic action
Protocol: The culture of human neuroblastoma cells (defined as SH-SY5Y) was cultured in DMEM with the addition of embryonic bovine serum (10%), 2 mM glutamine (DiaM, Moscow, Russia) and penicillin-streptomycin (100 U/Ml–100 µg/mL, PanEco, Moscow, Russia) in conditions of 5% CO2 in the air at 37 °C. Upon reaching 80% confluence, cells in the amount of 1 × 10^4 were placed in 96-well transparent plates and incubated under the same conditions for 24 h. After the incubation time, the cells were exposed to a 24-h exposure to various concentrations of hydroxamic acids dissolved in dimethyl sulfoxide (range from 1 to 100 µM). An equivalent volume of solvent was used as a control (final DMSO content = 1%).
Cell survival analysis was performed using MTT test. To do this, 3-(4,5-dimethylthiazol-2-yl)-2,5-diphenyltetrazolium bromide (MTT, 5 mg/mL, DiaM, Moscow, Russia) was introduced into all wells and incubated at 37 °C for 2 h to restore metabolically active cells of the yellow tetrazolium salt MTT to purple formazane crystals. The resulting formazane was then re-suspended in 200 µL DMSO per well. The optical density was recorded using a multifunctional Cytation™3 flatbed analyzer (BioTek Instruments, Inc., Winooski, VT, USA) at λ = 530 nm.

[2] = Oxygen radical absorbance capacity (ORAC); conditions: Trolox equivalent; compounds and Trolox 100 µM, AAPH 12 mM
Text: DPPH is a stable chromogen radical, which is widely used to assess the antioxidant activity of biological objects, in particular when searching for potential therapeutic agents used to maintain the redox balance in the body and treat pathologies associated with the action of free radicals. In turn, the oxygen radical absorbance capacity (ORAC) analysis is based on the removal by potential antioxidants of peroxyl radicals generated by AAPH (2,2’-axobis-2-methyl-propanimidamide, dihydrochloride), preventing the degradation of the fluorescein probe.
The analysis of the absorption capacity of oxygen radicals was performed as described in [151], with some modifications. Trolox (Sigma Aldrich, St. Louis, MI, USA) was used as a standard antioxidant. The studied compounds were introduced into the holes of a 96-hole black tablet with a transparent bottom with Trolox (25 µL; the final concentration was 100 µM) and fluorescein (150 µL; the final concentration was 80 nM, Sigma Aldrich, St. Louis, MI, USA). The resulting mixture was shaken and incubated for 30 min at 37 °C. After a 30-min incubation period, a solution of 2,2’-azobis (2-amidinopropane) dihydrochloride (AAPH) (25 µL; final concentration of 12 mM, Sigma Aldrich, St. Louis, MI, USA) was quickly introduced into all wells of the tablet. The tablet was immediately placed in a multifunctional tablet analyzer Cytation™ 3 (BioTek Instruments, Inc., Winooski, VT, USA). The fluorescence intensity was recorded for 300 min at λex = 480 nm, λem = 520 nm with an interval of every 5 min. In the same experiment, calibration solutions for the reference antioxidant Trolox were used to confirm the validity of the use of this method (0, 6.25, 12.5, 25, 50 and 100 µM).

[3] = target: T1, β-amyloid peptide 1-42 (Aβ1-42) (Homo sapiens, UniProt P05067); experiment: Thioflavin T fluorescent analysis of Aβ1-42 aggregation; format: biochemical; conditions: 48 h, compounds 100 µM, Thioflavin T 10 µM, 48 h registration; read-out: prevention of the aggregation of Aβ1-42
T1 construct: the pathological form of β-amyloid peptide 1-42 (Sigma Aldrich); purchased Sigma Aldrich
Text: The aggregation process of β-amyloid peptide 1-42 (Aβ1-42), caused by hydrophobic interactions of peptide monomers and, as a consequence, the formation of the most toxic polymorphic structure-oligomeric fragments of Aβ, was detected using the fluorescent dye Thioflavin T (Figure 4a). This method is the most widely used for selective staining and the identification of amyloid aggregates, which is confirmed by a large number of works. Fluorescence analysis using Thioflavin T made it possible to monitor the aggregation process of the pathological form of β-amyloid peptide 1-42 (Sigma Aldrich, St. Louis, MI, USA). The experimental protocol was carried out similarly to that described in [58] with some modifications. The registration of changes in the fluorescence of thioflavin T (10 µM, Sigma Aldrich, St. Louis, MI, USA) was performed on a multifunctional tablet analyzer Cytation™3 (BioTek Instruments, Inc., Winooski, VT, USA) at λex = 450 nm, λem = 480 nm. The fluorescence intensity of the solution without Aβ1-42 was subtracted from the fluorescence values of solutions containing protein, due to the need to subtract the background fluorescence.

T1 sequence (P05067 672-713 limits assumed): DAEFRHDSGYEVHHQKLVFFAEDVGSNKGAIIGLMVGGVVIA

inhibition at 100 µM [3]: 73.9%
Compound: C=C(C)[C@@H]1CC=C(CNC(=O)/C=C/c2ccc(C(=O)NO)cc2)CC1 [Compound 35a, (S,E)-N-hydroxy-4-(3-oxo-3-(((4-(prop-1-en-2-yl)cyclohex-1-en-1-yl)methyl)amino)prop-1-en-1-yl)benzamide]
MDA level in brain (increase in 5xFAD mice) [1]: reversed | IC50 at 24 h (Cell viability, MTT test): 89.2 ± 2.09 µM | ORAC value (TE) [2]: 1.15 TE
